Legend:
RelA [1] = target: T1, RelA (Escherichia coli, UniProt P0AG20); test: 3H-GDP conversion to ppGpp by purified RelA with vacant 70S or starved ribosomal complexes, TLC; format: biochemical
T1 construct: untagged native full-length RelA
T1 sequence (P0AG20 1-744): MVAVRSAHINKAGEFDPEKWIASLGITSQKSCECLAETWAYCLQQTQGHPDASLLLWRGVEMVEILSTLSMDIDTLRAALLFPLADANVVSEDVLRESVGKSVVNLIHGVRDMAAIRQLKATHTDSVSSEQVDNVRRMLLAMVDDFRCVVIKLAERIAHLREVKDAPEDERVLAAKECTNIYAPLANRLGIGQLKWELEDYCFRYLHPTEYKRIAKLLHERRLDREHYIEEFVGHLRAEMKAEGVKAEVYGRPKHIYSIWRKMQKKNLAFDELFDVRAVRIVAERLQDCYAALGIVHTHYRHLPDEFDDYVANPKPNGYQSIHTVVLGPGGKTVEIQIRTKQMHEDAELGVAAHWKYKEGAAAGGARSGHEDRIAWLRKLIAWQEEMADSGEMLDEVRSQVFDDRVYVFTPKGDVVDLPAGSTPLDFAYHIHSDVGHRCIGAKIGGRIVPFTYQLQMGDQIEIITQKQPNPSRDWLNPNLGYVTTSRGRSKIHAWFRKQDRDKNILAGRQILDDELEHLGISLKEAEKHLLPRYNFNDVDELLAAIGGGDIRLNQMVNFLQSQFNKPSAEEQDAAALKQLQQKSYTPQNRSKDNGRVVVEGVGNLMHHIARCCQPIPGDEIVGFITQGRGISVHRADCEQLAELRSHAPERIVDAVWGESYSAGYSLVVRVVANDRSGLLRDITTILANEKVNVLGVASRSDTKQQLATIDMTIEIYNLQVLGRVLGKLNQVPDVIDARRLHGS

RelA [2] = target: T1, RelA; test: 3H-GTP conversion to pppGpp by purified RelA with ribosomes, TLC; format: biochemical
RelA [3] = target: T1, RelA; test: product of 3H-GDP conversion by purified RelA; added at […] it only mildly modulates activity; format: biochemical
RelA [4] = target: T1, RelA; test: 3H-ppGpp synthesis assay (TLC) with purified RelA, pppGpp titration (activation), RelA alone or with starved ribosomal complexes; format: biochemical
RelA (untagged native) = target: T2, RelA (untagged native) (Escherichia coli DH5alpha, UniProt P0AG20 1-744); test: EMSA; 70 nM RNA, up to 60x excess RelA; weak binding (KD above 3 uM) not excluded; HEPES:Polymix buffer, 5 mM Mg2+, pH 7.5, 37 C; details: protein: recombinant; tags: none; hairpin
T2 sequence: T1 sequence (P0AG20 1-744)

**Q.** How did the “3H-GDP conversion to ppGpp by purified RelA with vacant 70S or starved ribosomal” value (RelA [1]) turn out when `Nc1nc2c(ncn2[C@@H]2O[C@H](COP(=O)(O)OP(=O)(O)O)[C@@H](O)[C@H]2O)c(=O)[nH]1` [GDP] was run?
**A.** The value was 1077±62 ppGpp per RelA per minute.

**Q.** With `Nc1nc2c(ncn2[C@@H]2O[C@H](COP(=O)(O)OP(=O)(O)OP(=O)(O)O)[C@@H](O)[C@H]2O)c(=O)[nH]1` [GTP] as the molecule, how does the “3H-GTP conversion to pppGpp by purified RelA with ribosomes, TLC” value (RelA [2]) read?
**A.** Its value is 896 ± 29 pppGpp reactions per RelA per minute.

**Q.** With `Nc1nc2c(ncn2[C@@H]2O[C@H](COP(=O)(O)OP(=O)(O)O)[C@@H](OP(=O)(O)OP(=O)(O)O)[C@H]2O)c(=O)[nH]1` [ppGpp] as the molecule, how does the “product of 3H-GDP conversion by purified RelA; added at 100 μM it only mildly mo” value (RelA [3]) read?
**A.** The value was “When GTP is used as a substrate, ppGpp acts as a weak inhibitor”.

**Q.** How did the EC50 (RelA [4]) turn out when `Nc1nc2c(ncn2[C@@H]2O[C@H](COP(=O)(O)OP(=O)(O)OP(=O)(O)O)[C@@H](OP(=O)(O)OP(=O)(O)O)[C@H]2O)c(=O)[nH]1` [pppGpp] was run?
**A.** Its EC50 is 0.5 to 0.6 µM.

B1: ASF RNA oligonucleotide (23S rRNA H38, 34 nt) (structured_RNA)
RNA: UCGGCAAGGGGGUCAUCCCGACUUACCAACCCGA
**Q.** Does B1 bind (RelA (untagged native))?
**A.** Result: no binding

Reference: article PMC5829649, “The ribosomal A-site finger is crucial for binding and activation of the stringent factor RelA” (Nucleic Acids Research, 2018)
